# Data taken from patent US20030064954A1, “Cationic amphiphilic 1,4-dihydropyridine derivatives useful for delivery of nucleotide containing compounds” (priority 2000, published 2003).
# Key:
# [1] = Preparation of liposomes (vesicle solution); type: physicochemical
# Procedure: Cationic liposomes comprising derivatives I-XXI were prepared by dissolving the crystalline derivative in chloroform. The solvent was evaporated under a stream of nitrogen for 45 min in vacuum. The resulting thin films were resuspended in 4 ml deionized water, vortexed and sonicated in bath type sonicator 30′ until the solution became clear. (The final concentration of liposomes was 2.5 mM.) In order to prepare the liposomes of derivatives I-XXI (Table 2) high temperatures (40-65° C.) were used. Derivatives XXII-XXVII (Table 2) were dissolved in deionized water, vortexed and sonicated 5-7 min in a bath sonicator.
# plasmid DNA = test: DNA condensation/complexation, EtBr displacement assay; type: binding
# Summary of the method: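 Plasmid DNA (0.6 μg/well) was mixed with 0.002% EtBr in 20 mM HEPES–150 mM NaCl pH 7.4, then cationic liposomes were added at various +/− charge ratios.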
# [2] = tested on: D407 (human retinal pigment epithelial) cells; test: In vitro transfection of plasmid DNA, β-galactosidase activity per well; type: cell-based; conditions: for transfection efficiency: D 407
# Procedure: Transfer of plasmid DNA by various compounds was investigated by using CV-1P (African monkey green kidney fibroblasts cells) and D407 (human retinal pigment epithelial) cells.
# The cells were cultured in Dulbecco's modified Eagle's medium (DMEM, Gibco), supplemented with 10% fetal bovine serum (FBS), penicillin/streptomycin (100 units/ml and 100 μg/ml respectively) and 2 mM L-glutamine for D 407 cell line. Cell cultures were maintained at 37° C. in a 7% CO2/air incubator. The cells were collected, counted and seeded in growth medium (100 μl) into 96-well culture plate, 20 000 cells per well. One day later the medium was replaced with fresh medium without serum (150 μl)
# The complexes at different derivative/DNA charge ratios for transfection procedure were prepared just before use in 50 mM MES—50 mM HEPES—75 mM NaCl buffer, pH 7.2 in separate 96 well plates. One hour after changing the serum-free medium with 10% serum the complexes were added to the cells at 370C. Dose of DNA per well was 0.6 μg. After 5 h the complexes were removed, the cells were washed with PBS, and the normal growth medium was added. After 45 h of incubation at 37° C. the cells were lysed with 2% Triton X 100, twice deep frozen and the β-galactosidase activity in each well was determined spectrofotometrically with ELx800 automated microplate reader (Bio-Tex Instruments Inc., Winooski, Vt. USA) by monitoring the hydrolysis of o-nitrophenylgalactopyranoside (oNPG) at 405 nm. Purified β-galactosidase from E.coli was used to construct a standard curve and to calculate 9-galactosidase activity in the transfected cells. […] Transfection efficiencies are given as percentage in comparison to transfection efficiency of Lipofectin^R.
# carotid arteries = test: In vivo gene transfer to collared carotid arteries, X-gal staining; parameters: species or system New Zealand White rabbits; conditions: rabbit carotid artery
# Procedure: For in vivo studies derivative/plasmid DNA complexes were prepared by the above mentioned method. After gentle swirling the mixtures were allowed to stand in room temperatures for 30 min. prior to use. The complexes were made in phosphate buffer saline and those having +/−charge ratios of 2-8 were used.
# Five New Zealand White male rabbits of 2.5-3.5 kg were used. Fentanyl-fluanisone (0,3 mL/kg, s.c., Janssen Pharmaceutica, Beerse, Belgium) and midazolam (1.5 mg/kg, i.m., Roche, Basel, Switzerland) were used for anesthesia. Carotid arteries were exposed using midline neck incision. Arteries were carefully separated from the surrounding tissue and 3 cm silastic collar (MediGene Oy, Kuopio, Finland) was positioned around the artery. Rabbits were re-anesthetized for gene transfer, which was performed 5 days after the installation of the collars. The collars were opened and filled with 600 μL of the gene transfer solution. Rabbits were sacrificed three days after the gene transfer and arteries were removed for histological analyses.
# Collared arteries were divided into three equal parts: the proximal third was immersion-fixed in 4% paraformaldehyde/15% sucrose (pH 7.4) for 4 h, rinsed in 15% sucrose (pH 7.4) overnight and embedded in paraffin. The medial third was stored at −70° C. for later analyses. The distal third was immersion-fixed in 4% paraformaldehyde/phosphate buffered saline (pH 7.4) for 30 min, rinsed 24 h in phosphate buffer (pH 7.2) and embedded in OCT compound.
# Ten randomly selected frozen sections (10 μm) from each rabbit were stained with X-gal for 18 h to identify β-galactosidase positive cells. Mayers Carmalum-stain was, used as counter stain.
# [3] = tested on: CV-1P (African monkey green kidney fibroblasts cells); test: In vitro transfection of plasmid DNA, β-galactosidase activity per well; type: cell-based; conditions: for transfection efficiency: CVI-P
# Summary of the method: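 CV-1P cells (20 000/well) given compound/DNA complexes at various charge ratios, prepared in 50 mM MES–50 mM HEPES–75 mM NaCl pH 7.2, 0.6 μg DNA/well, for 5 h at 37 °C, then 45 h in growth medium. Lysates assayed for β-galactosidase via oNPG hydrolysis at 405 nm against an E. coli enzyme standard; efficiency expressed as percent of Lipofectin.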
# CVI-P cells = test: Cytotoxicity of amphiphile/DNA complexes, percentage of survived cells
# D 407 cells = test: as above; type: cell-based, human; parameters: concentration or dose not given beside the values
# [4] = amphiphile/DNA +/− charge ratio 0.5
# [5] = amphiphile/DNA +/− charge ratio 1
# [6] = amphiphile/DNA +/− charge ratio 2
# [7] = amphiphile/DNA +/− charge ratio 4
# [8] = amphiphile/DNA +/− charge ratio 8
compound,measurement,setting,value
"3′,5′-Bis(cholesteryloxycarbonyl)-1′,4′-dihydro-1,2′,6′-trimethyl-3,4′-bipyridinium iodide [XII]","vesicle solution preparation, observation in words (phrases split over cells: 'Fast residue & crystalls'; 'No vesicle solution can be prepared')",[1],No
"CCCCCCCCCCCCOC(=O)C1=C(C[n+]2ccccc2)NC(C[n+]2ccccc2)=C(C(=O)OCCCCCCCCCCCC)C1c1ccccc1.[Br-].[Br-] [XXIII, 1,1′-{[3,5-Bis(dodecyloxycarbonyl)-1,4-dihydro-4-phenylpyridine-2,6-diyl]dimethylene}bispyridinium dibromide]","complexation, percentage of the maximum fluorescence signal when EtBr bound to DNA in the absence of an amphiphile",plasmid DNA; [4],"78,22%"
same,"complexation, percentage of the maximum fluorescence signal when EtBr bound to DNA in the absence of an amphiphile",plasmid DNA; [5],"59,03%"
same,"complexation, percentage of the maximum fluorescence signal when EtBr bound to DNA in the absence of an amphiphile",plasmid DNA; [6],"48,3%"
same,"complexation, percentage of the maximum fluorescence signal when EtBr bound to DNA in the absence of an amphiphile",plasmid DNA; [7],"44,14%"
same,"complexation, percentage of the maximum fluorescence signal when EtBr bound to DNA in the absence of an amphiphile",plasmid DNA; [8],"42,48%"
same,transfection efficiency,[2]; [4],"0,27 β-galactosidase units per well"
same,transfection efficiency,[2]; [5],"0,27 β-galactosidase units per well"
same,transfection efficiency,[2]; [6],"0,6 β-galactosidase units per well"
same,transfection efficiency,[2]; [7],"35,82 β-galactosidase units per well"
same,transfection efficiency,[2]; [8],"4,43 β-galactosidase units per well"
same,level of transfection compared with Lipofectin,"[2]; D407 cells, FIG. 4",at least twenty times higher
same,"β-galactosidase activity in arteries, result in words",carotid arteries; X-gal staining,detected at all study groups
same,gene transfer efficiency,"carotid arteries; derivative/plasmid complexes at three charge ratios, three days after gene transfer",0.05-1.5%
same,most effective charge ratio,carotid arteries; three charge ratios tested,+4
same,level of transfection compared with DOTAP,"[3]; CV1-P cells, FIG. 4",ten times higher
same,level of transfection compared with Lipofectin,"[3]; CV1-P cells, FIG. 4",at least twenty times higher
same,transfection efficiency,[3]; [4],"0,44 β-galactosidase units per well"
same,transfection efficiency,[3]; [5],"0,42 β-galactosidase units per well"
same,transfection efficiency,[3]; [6],"65,5 β-galactosidase units per well"
same,transfection efficiency,[3]; [7],"122,8 β-galactosidase units per well"
same,transfection efficiency,[3]; [8],"22,33 β-galactosidase units per well"
same,highest level of beta-galactosidase expression,"[3]; confluent CV1-P cells, without serum, without DOPE",208 mU
same,cytotoxicity as a percentage of survived cells,CVI-P cells; [4],"99,71%"
same,cytotoxicity as a percentage of survived cells,CVI-P cells; [5],"94,54%"
same,cytotoxicity as a percentage of survived cells,CVI-P cells; [6],"93,48%"
same,cytotoxicity as a percentage of survived cells,CVI-P cells; [7],"89,35%"
same,cytotoxicity as a percentage of survived cells,CVI-P cells; [8],"42,72%"
same,cytotoxicity as a percentage of survived cells,D 407 cells; [4],"93,67%"
same,cytotoxicity as a percentage of survived cells,D 407 cells; [5],"87,69%"
same,cytotoxicity as a percentage of survived cells,D 407 cells; [6],"79,68%"
same,cytotoxicity as a percentage of survived cells,D 407 cells; [7],"70,23%"
same,cytotoxicity as a percentage of survived cells,D 407 cells; [8],"11,98%"
